In paper PMC5218480 (PLoS ONE, 2017):

Tested on: MV-4-11 cells
Experiment: Gene expression microarray analysis (Affymetrix PrimeView) and GSEA
Format: cell-based, human
Parameters: RFU PODN (11730768_x_at) / Fold change /veh PODN (11730768_x_at) / RFU LINC00158 (11744669_a_at) / Fold change /veh LINC00158 (11744669_a_at) / RFU DUSP10 (11751237_a_at) / Fold change /veh DUSP10 (11751237_a_at) / RFU ID3 (11757404_x_at) / Fold change /veh ID3 (11757404_x_at) / RFU PLEKHG5 (11737974_s_at) / Fold change /veh PLEKHG5 (11737974_s_at) / RFU LRRC4B (11730491_at) / Fold change /veh LRRC4B (11730491_at) / RFU GIMAP4 (11747438_a_at) / Fold change /veh GIMAP4 (11747438_a_at) / RFU KRT8 (11758183_x_at) / Fold change /veh KRT8 (11758183_x_at) / RFU CNN1 (11734310_a_at) / Fold change /veh CNN1 (11734310_a_at) / RFU VPS37D (11726825_at) / Fold change /veh VPS37D (11726825_at) / RFU C10orf10 (11716522_x_at) / Fold change /veh C10orf10 (11716522_x_at) / RFU KIR2DL2 /// KIR2DL4 /// KIR2DL5A /// KIR2DL5B /// KIR2DS1 /// KIR2DS2 /// KIR2DS3 /// KIR2DS4 /// KIR3DL3 /// KIR3DL3 /// KIR3DS1 (11738374_at) / Fold change /veh KIR2DL2 /// KIR2DL4 /// KIR2DL5A /// KIR2DL5B /// KIR2DS1 /// KIR2DS2 /// KIR2DS3 /// KIR2DS4 /// KIR3DL3 /// KIR3DL3 /// KIR3DS1 (11738374_at) / RFU C1QL1 (11718748_at) / Fold change /veh C1QL1 (11718748_at) / RFU TMPRSS4 (11747572_a_at) / Fold change /veh TMPRSS4 (11747572_a_at) / RFU HAMP (11756126_x_at) / Fold change /veh HAMP (11756126_x_at) / RFU RNFT2 (11725882_a_at) / Fold change /veh RNFT2 (11725882_a_at) / RFU NR4A2 (11747474_a_at) / Fold change /veh NR4A2 (11747474_a_at) / RFU ABCC12 (11746883_a_at) / Fold change /veh ABCC12 (11746883_a_at) / RFU TMEM136 (11760407_x_at) / Fold change /veh TMEM136 (11760407_x_at) / RFU CLDN22 /// WWC2 (11732394_at) / Fold change /veh CLDN22 /// WWC2 (11732394_at) / RFU HLA-DPB1 (11760878_x_at) / Fold change /veh HLA-DPB1 (11760878_x_at) / RFU SPINT1 (11716480_a_at) / Fold change /veh SPINT1 (11716480_a_at) / RFU GAP43 (11754022_s_at) / Fold change /veh GAP43 (11754022_s_at) / RFU A4GNT (11735810_at) / Fold change /veh A4GNT (11735810_at) / RFU PRB3 (11715151_x_at) / Fold change /veh PRB3 (11715151_x_at) / RFU TUBB4B (11761932_at) / Fold change /veh TUBB4B (11761932_at) / RFU CAPN14 (11732068_a_at) / Fold change /veh CAPN14 (11732068_a_at) / RFU TMCC2 (11721928_a_at) / Fold change /veh TMCC2 (11721928_a_at) / RFU IRGQ (11745062_a_at) / Fold change /veh IRGQ (11745062_a_at) / RFU FAM174B (11720279_a_at) / Fold change /veh FAM174B (11720279_a_at) / RFU TMPRSS4 (11748680_a_at) / Fold change /veh TMPRSS4 (11748680_a_at) / RFU FAM212B (11763350_a_at) / Fold change /veh FAM212B (11763350_a_at) / RFU PLEKHG5 (11743358_a_at) / Fold change /veh PLEKHG5 (11743358_a_at) / RFU ZSCAN30 (11745921_a_at) / Fold change /veh ZSCAN30 (11745921_a_at) / RFU CMKLR1 (11741424_a_at) / Fold change /veh CMKLR1 (11741424_a_at) / RFU LOC101060620 /// MAPK8IP1 (11723275_at) / Fold change /veh LOC101060620 /// MAPK8IP1 (11723275_at) / RFU SPTSSB (11747773_x_at) / Fold change /veh SPTSSB (11747773_x_at) / RFU PRSS12 (11739890_at) / Fold change /veh PRSS12 (11739890_at) / RFU BIN1 (11741810_x_at) / Fold change /veh BIN1 (11741810_x_at) / RFU WNT11 (11732464_a_at) / Fold change /veh WNT11 (11732464_a_at) / RFU C10orf10 (11716521_a_at) / Fold change /veh C10orf10 (11716521_a_at) / RFU C5orf56 (11738089_at) / Fold change /veh C5orf56 (11738089_at) / RFU CYB561 (11721691_x_at) / Fold change /veh CYB561 (11721691_x_at) / RFU ANKRD19P (11752326_a_at) / Fold change /veh ANKRD19P (11752326_a_at) / RFU OR2T12 /// OR2T33 /// OR2T8 (11738714_s_at) / Fold change /veh OR2T12 /// OR2T33 /// OR2T8 (11738714_s_at) / RFU VCAN (11748164_a_at) / Fold change /veh VCAN (11748164_a_at) / RFU JSRP1 (11732532_at) / Fold change /veh JSRP1 (11732532_at) / RFU KRTAP10-11 (11738290_x_at) / Fold change /veh KRTAP10-11 (11738290_x_at) / RFU MYO3A (11730013_a_at) / Fold change /veh MYO3A (11730013_a_at) / RFU EBF3 (11725865_a_at) / Fold change /veh EBF3 (11725865_a_at) / RFU CAMK2N1 (11719241_x_at) / Fold change /veh CAMK2N1 (11719241_x_at) / RFU C5orf56 (11738088_a_at) / Fold change /veh C5orf56 (11738088_a_at) / RFU OLFML3 (11715873_a_at) / Fold change /veh OLFML3 (11715873_a_at) / RFU LOC100653217 /// NTM (11731650_a_at) / Fold change /veh LOC100653217 /// NTM (11731650_a_at) / RFU MAPK11 (11762145_a_at) / Fold change /veh MAPK11 (11762145_a_at) / RFU FIZ1 (11724087_x_at) / Fold change /veh FIZ1 (11724087_x_at) / RFU OASL (11726364_x_at) / Fold change /veh OASL (11726364_x_at) / RFU SOX15 (11748057_x_at) / Fold change /veh SOX15 (11748057_x_at) / RFU CD79A (11719716_a_at) / Fold change /veh CD79A (11719716_a_at) / RFU HIST1H1D (11736915_at) / Fold change /veh HIST1H1D (11736915_at) / RFU CASKIN2 (11723855_a_at) / Fold change /veh CASKIN2 (11723855_a_at) / RFU LOC730098 (11760151_x_at) / Fold change /veh LOC730098 (11760151_x_at) / RFU OR4N2 (11742367_at) / Fold change /veh OR4N2 (11742367_at) / RFU PRRT2 (11749266_a_at) / Fold change /veh PRRT2 (11749266_a_at) / RFU SNX32 (11753110_a_at) / Fold change /veh SNX32 (11753110_a_at) / RFU CDHR5 (11726645_a_at) / Fold change /veh CDHR5 (11726645_a_at) / RFU RCAN1 (11760418_a_at) / Fold change /veh RCAN1 (11760418_a_at) / RFU FAM167A (11723789_a_at) / Fold change /veh FAM167A (11723789_a_at) / RFU FAM26E (11764081_at) / Fold change /veh FAM26E (11764081_at) / RFU ISYNA1 (11749810_s_at) / Fold change /veh ISYNA1 (11749810_s_at) / RFU ACY1 (11761880_at) / Fold change /veh ACY1 (11761880_at) / RFU 11764098_at / Fold change /veh 11764098_at / RFU SAMD14 (11745864_x_at) / Fold change /veh SAMD14 (11745864_x_at) / RFU NPB (11741838_a_at) / Fold change /veh NPB (11741838_a_at) / RFU TMPRSS6 (11731388_a_at) / Fold change /veh TMPRSS6 (11731388_a_at) / RFU KRTAP10-2 (11738614_at) / Fold change /veh KRTAP10-2 (11738614_at) / RFU ARHGAP8 /// PRR5-ARHGAP8 (11727945_x_at) / Fold change /veh ARHGAP8 /// PRR5-ARHGAP8 (11727945_x_at) / RFU KRTAP5-7 /// NADSYN1 (11734609_at) / Fold change /veh KRTAP5-7 /// NADSYN1 (11734609_at) / RFU RASL12 (11751679_a_at) / Fold change /veh RASL12 (11751679_a_at) / RFU CDKN2B (11736163_a_at) / Fold change /veh CDKN2B (11736163_a_at) / RFU PRF1 (11729649_at) / Fold change /veh PRF1 (11729649_at) / RFU, ZNF638 /// ZNF638-IT1 / Fold change vs veh, ZNF638 /// ZNF638-IT1 / RFU, PANK3 / Fold change vs veh, PANK3 / RFU, SH3YL1 / Fold change vs veh, SH3YL1 / RFU, ZEB2 / Fold change vs veh, ZEB2 / RFU, NRIP1 / Fold change vs veh, NRIP1 / RFU, PTTG1IP / Fold change vs veh, PTTG1IP / RFU, CAPN2 / Fold change vs veh, CAPN2 / RFU, MED14 / Fold change vs veh, MED14 / RFU, SNORA58 / Fold change vs veh, SNORA58 / RFU, C1orf63 / Fold change vs veh, C1orf63 / RFU, LRRFIP1 / Fold change vs veh, LRRFIP1 / RFU, NDUFAF7 / Fold change vs veh, NDUFAF7 / RFU, SLC12A2 / Fold change vs veh, SLC12A2 / RFU, IBTK / Fold change vs veh, IBTK / RFU, ESF1 / Fold change vs veh, ESF1 / Fold change vs veh, TMEM50B / RFU, TAOK1 / Fold change vs veh, TAOK1 / RFU, ACBD3 / Fold change vs veh, ACBD3 / RFU, TMA16 / Fold change vs veh, TMA16 / RFU, RWDD3 / Fold change vs veh, RWDD3 / RFU, BCAT1 / Fold change vs veh, BCAT1 / RFU, EDEM3 / Fold change vs veh, EDEM3 / RFU, TMEM33 / Fold change vs veh, TMEM33 / RFU, WDR75 / Fold change vs veh, WDR75 / RFU, AHCTF1 / Fold change vs veh, AHCTF1 / RFU, TFRC / Fold change vs veh, TFRC / RFU, ZDHHC17 / Fold change vs veh, ZDHHC17 / RFU, NOM1 / Fold change vs veh, NOM1 / RFU, ARL8B / Fold change vs veh, ARL8B / RFU, ZBTB11 / Fold change vs veh, ZBTB11 / RFU, TAMM41 / Fold change vs veh, TAMM41 / RFU, KIAA1704 /// LOC100996395 / Fold change vs veh, KIAA1704 /// LOC100996395 / RFU, ING1 / Fold change vs veh, ING1 / RFU, TRMT61B / Fold change vs veh, TRMT61B / RFU, FUBP3 / Fold change vs veh, FUBP3 / RFU, TP53 / Fold change vs veh, TP53 / RFU, TNKS2 / Fold change vs veh, TNKS2 / RFU, ZFP14 / Fold change vs veh, ZFP14 / RFU, ACTR2 / Fold change vs veh, ACTR2 / RFU, PPP3R1 / Fold change vs veh, PPP3R1 / RFU, PIK3R1 / Fold change vs veh, PIK3R1 / RFU, HNRNPA1 / Fold change vs veh, HNRNPA1 / RFU, RNF170 / Fold change vs veh, RNF170 / RFU, ZNF28 / Fold change vs veh, ZNF28 / RFU, RNGTT / Fold change vs veh, RNGTT / RFU, OGT / Fold change vs veh, OGT / RFU, BRD1 / Fold change vs veh, BRD1 / RFU, MARS / Fold change vs veh, MARS / RFU, ZNF655 / Fold change vs veh, ZNF655 / RFU, FAHD1 / Fold change vs veh, FAHD1 / RFU, BDP1 / Fold change vs veh, BDP1 / RFU, LRRCC1 / Fold change vs veh, LRRCC1 / RFU, ARID1A / Fold change vs veh, ARID1A / RFU, ZNF146 / Fold change vs veh, ZNF146 / RFU, ZNF330 / Fold change vs veh, ZNF330 / RFU, GPN3 / Fold change vs veh, GPN3 / RFU, C9orf123 / Fold change vs veh, C9orf123 / RFU, N4BP2L2 / Fold change vs veh, N4BP2L2 / RFU, ARFIP1 / Fold change vs veh, ARFIP1 / RFU, FAM179B / Fold change vs veh, FAM179B / RFU, BCL10 / Fold change vs veh, BCL10 / RFU, UHRF1BP1L / Fold change vs veh, UHRF1BP1L / RFU, BET1 / Fold change vs veh, BET1 / RFU, CNOT2 / Fold change vs veh, CNOT2 / RFU, ZNF268 / Fold change vs veh, ZNF268 / Fold change vs veh, ZNF507 / RFU, DGCR2 / Fold change vs veh, DGCR2 / RFU, WDSUB1 / Fold change vs veh, WDSUB1 / Fold change vs veh, HSP90B1 /// MIR3652 / RFU, ADSS / Fold change vs veh, ADSS / RFU, GK / Fold change vs veh, GK / RFU, ZNF148 / Fold change vs veh, ZNF148 / RFU, TAF9 / Fold change vs veh, TAF9 / RFU, SLC1A5 / Fold change vs veh, SLC1A5 / RFU, SLMO2 / Fold change vs veh, SLMO2 / RFU, ABCC4 / Fold change vs veh, ABCC4 / RFU, LOC101060439 /// RAP1B / Fold change vs veh, LOC101060439 /// RAP1B / RFU, RFX7 / Fold change vs veh, RFX7 / RFU, GTPBP10 / Fold change vs veh, GTPBP10 / RFU, CNEP1R1 / Fold change vs veh, CNEP1R1 / RFU, BIVM-ERCC5 /// ERCC5 / Fold change vs veh, BIVM-ERCC5 /// ERCC5 / RFU, ILF3 / Fold change vs veh, ILF3 / RFU 11762660_at / Fold change /veh 11762660_at / RFU VCAN (11757783_s_at) / Fold change /veh VCAN (11757783_s_at) / RFU DDX43 (11728927_at) / Fold change /veh DDX43 (11728927_at) / RFU KRT8 (11758188_x_at) / Fold change /veh KRT8 (11758188_x_at) / RFU NKD1 (11759106_at) / Fold change /veh NKD1 (11759106_at) / RFU SRD5A1 (11742802_a_at) / Fold change /veh SRD5A1 (11742802_a_at) / RFU TPSAB1 /// TPSB2 (11721975_s_at) / Fold change /veh TPSAB1 /// TPSB2 (11721975_s_at) / RFU GSTM3 (11746129_a_at) / Fold change /veh GSTM3 (11746129_a_at) / RFU IL23R (11737362_x_at) / Fold change /veh IL23R (11737362_x_at) / RFU TMEM51 (11727254_a_at) / Fold change /veh TMEM51 (11727254_a_at) / RFU PIWIL2 (11732686_x_at) / Fold change /veh PIWIL2 (11732686_x_at) / RFU ORM1 (11744905_x_at) / Fold change /veh ORM1 (11744905_x_at) / RFU CCDC152 (11743942_at) / Fold change /veh CCDC152 (11743942_at) / RFU ECM1 (11717891_a_at) / Fold change /veh ECM1 (11717891_a_at) / RFU IL23R (11748794_a_at) / Fold change /veh IL23R (11748794_a_at) / RFU TNFAIP8L3 (11732012_x_at) / Fold change /veh TNFAIP8L3 (11732012_x_at) / RFU MBOAT4 (11741988_at) / Fold change /veh MBOAT4 (11741988_at) / RFU 11764193_at / Fold change /veh 11764193_at / RFU TMEM53 (11763286_at) / Fold change /veh TMEM53 (11763286_at) / RFU MAGEB2 (11727129_at) / Fold change /veh MAGEB2 (11727129_at) / RFU TMEM200A (11744735_a_at) / Fold change /veh TMEM200A (11744735_a_at) / RFU CCDC152 (11751479_a_at) / Fold change /veh CCDC152 (11751479_a_at) / RFU FAM211A (11726209_a_at) / Fold change /veh FAM211A (11726209_a_at) / RFU RGS16 (11746705_a_at) / Fold change /veh RGS16 (11746705_a_at) / RFU VCAN (11755009_s_at) / Fold change /veh VCAN (11755009_s_at) / RFU RHOB (11743442_s_at) / Fold change /veh RHOB (11743442_s_at) / RFU RGS16 (11720943_a_at) / Fold change /veh RGS16 (11720943_a_at) / RFU RGS16 (11720944_at) / Fold change /veh RGS16 (11720944_at) / RFU, VPS4B / Fold change vs veh, VPS4B / RFU, CREB1 / Fold change vs veh, CREB1 / RFU, DNAJC13 / Fold change vs veh, DNAJC13 / RFU, GNAQ / Fold change vs veh, GNAQ / RFU, CDK5R1 / Fold change vs veh, CDK5R1 / RFU, ZRANB3 / Fold change vs veh, ZRANB3 / RFU, CUL4A / Fold change vs veh, CUL4A / RFU, CCNY / Fold change vs veh, CCNY / RFU, UFL1 / Fold change vs veh, UFL1 / RFU, COG3 / Fold change vs veh, COG3 / RFU, DIAPH2 / Fold change vs veh, DIAPH2 / RFU, SKA2 / Fold change vs veh, SKA2 / RFU, AFF3 / Fold change vs veh, AFF3 / RFU, LMF1 / Fold change vs veh, LMF1 / RFU, IPO11 / Fold change vs veh, IPO11 / RFU, DFFB / Fold change vs veh, DFFB / RFU, FOXP1 / Fold change vs veh, FOXP1 / RFU, CARD8 / Fold change vs veh, CARD8 / RFU, STRN3 / Fold change vs veh, STRN3 / RFU, ADK / Fold change vs veh, ADK / RFU, RASSF2 / Fold change vs veh, RASSF2 / RFU, WIPF1 / Fold change vs veh, WIPF1 / RFU, LARP1B / Fold change vs veh, LARP1B / RFU, RASA1 / Fold change vs veh, RASA1 / RFU, RB1 / Fold change vs veh, RB1 / RFU, PPFIA1 / Fold change vs veh, PPFIA1 / RFU, MAT2A / Fold change vs veh, MAT2A / RFU, CCT5 / Fold change vs veh, CCT5 / RFU, WDR92 / Fold change vs veh, WDR92 / RFU, CUX1 / Fold change vs veh, CUX1 / RFU, TTC7A / Fold change vs veh, TTC7A / RFU, TMEM135 / Fold change vs veh, TMEM135 / RFU, DEPTOR / Fold change vs veh, DEPTOR / RFU, CPM / Fold change vs veh, CPM / RFU, DNAJB6 / Fold change vs veh, DNAJB6 / RFU, CACNA2D3 / Fold change vs veh, CACNA2D3 / RFU, DTX4 / Fold change vs veh, DTX4 / RFU, TFCP2 / Fold change vs veh, TFCP2 / RFU, GMCL1 /// GMCL1P1 / Fold change vs veh, GMCL1 /// GMCL1P1 / RFU, AEBP2 / Fold change vs veh, AEBP2 / RFU, SNHG1 /// SNORD22 /// SNORD25 /// SNORD26 /// SNORD27 /// SNORD28 /// SNORD29 /// SNORD31 / Fold change vs veh, SNHG1 /// SNORD22 /// SNORD25 /// SNORD26 /// SNORD27 /// SNORD28 /// SNORD29 /// SNORD31 / Fold change (Aza/veh), C12orf56 (ProbeSet 11735607_a_at) / Fold change (ACY-1035/veh), C12orf56 (ProbeSet 11735607_a_at) / Fold change (Aza/veh), FGFR1OP (ProbeSet 11751329_s_at) / Fold change (ACY-1035/veh), FGFR1OP (ProbeSet 11751329_s_at) / Fold change (Aza/veh), VPS36 (ProbeSet 11739960_a_at) / Fold change (ACY-1035/veh), VPS36 (ProbeSet 11739960_a_at) / RFU SYPL1 (11715823_x_at) / Fold change /veh SYPL1 (11715823_x_at) / RFU IGFBP7 (11715501_s_at) / Fold change /veh IGFBP7 (11715501_s_at) / RFU REEP3 (11722064_at) / Fold change /veh REEP3 (11722064_at) / RFU IGLL1 (11728026_x_at) / Fold change /veh IGLL1 (11728026_x_at): dose or concentration left out as unconfirmed
Conditions: MV-4-11 cells, 48 hours

Nc1ccc(-c2cccs2)cc1NC(=O)c1ccc2c(c1)cc(C1CC1)n2CCN1CCOCC1 [ACY-1035]
Fold change /veh DDX43 (11728927_at): 1.03
